Results taken from ChEMBL document CHEMBL5212743, “Selectivity Literature for EUbOPEN Chemogenomics Library wave 3” (2023).

Legend:
[1] = target: Histone-lysine N-methyltransferase PRDM7 (Homo sapiens) (UniProt Q9NQW5); experiment: Selectivity interaction (Methyltransferase panel (DSF assay)) EUB0000234b PRDM7
[2] = target: PR domain zinc finger protein 1 (Homo sapiens) (UniProt O75626); experiment: Selectivity interaction (Methyltransferase panel (DSF assay)) EUB0000234b PRDM1
Adenosine receptor A2b = Adenosine receptor A2b (Homo sapiens, UniProt P29275); experiment: Selectivity interaction (GloSensor assay) EUB0000234b ADORA2B
Mu-type opioid receptor [3] = target: T1, Mu-type opioid receptor (Homo sapiens, UniProt P35372); experiment: Selectivity interaction (Eurofins Panlabs Discovery Services Panel (enzymes and receptors)) EUB0000234b OPRM1; details: at 10 µM
[4] = target: PR domain zinc finger protein 8 (Homo sapiens) (UniProt Q9NQV8); experiment: Selectivity interaction (Methyltransferase panel (DSF assay)) EUB0000234b PRDM8
[5] = target: Histone-lysine N-methyltransferase PRDM9 (Homo sapiens) (UniProt Q9NQV7); experiment: Selectivity interaction (Methyltransferase panel (DSF assay)) EUB0000234b PRDM9
[6] = target: Adenosine receptor A2b (Homo sapiens) (UniProt P29275); experiment: Selectivity interaction (Eurofins Panlabs Discovery Services Panel (enzymes and receptors)) EUB0000234b ADORA2B; details: at 10 µM
[7] = target: PR domain zinc finger protein 12 (Homo sapiens) (UniProt Q9H4Q4); experiment: Selectivity interaction (Methyltransferase panel (DSF assay)) EUB0000234b PRDM12
[8] = target: PR domain-containing protein 11 (Homo sapiens) (UniProt Q9NQV5); experiment: Selectivity interaction (Methyltransferase panel (DSF assay)) EUB0000234b PRDM11
Histamine H3 receptor [9] = target: T2, Histamine H3 receptor (Homo sapiens, UniProt Q9Y5N1); experiment: Selectivity interaction (GloSensor assay) EUB0000234b HRH3
[10] = target: Histone-lysine N-methyltransferase PRDM16 (Homo sapiens) (UniProt Q9HAZ2); experiment: Selectivity interaction (Methyltransferase panel (DSF assay)) EUB0000234b PRDM16
[11] = target: Histone-lysine N-methyltransferase MECOM (Homo sapiens) (UniProt Q03112); experiment: Selectivity interaction (Methyltransferase panel (DSF assay)) EUB0000234b MECOM
Mu-type opioid receptor [12] = target: T1, Mu-type opioid receptor; experiment: Selectivity interaction (GloSensor assay) EUB0000234b OPRM1
[13] = target: T3, Muscarinic acetylcholine receptor M2 (Homo sapiens) (UniProt P08172); experiment: Selectivity interaction (Eurofins Panlabs Discovery Services Panel (enzymes and receptors)) EUB0000234b CHRM2; details: at 10 µM
T3 sequence (whole entry): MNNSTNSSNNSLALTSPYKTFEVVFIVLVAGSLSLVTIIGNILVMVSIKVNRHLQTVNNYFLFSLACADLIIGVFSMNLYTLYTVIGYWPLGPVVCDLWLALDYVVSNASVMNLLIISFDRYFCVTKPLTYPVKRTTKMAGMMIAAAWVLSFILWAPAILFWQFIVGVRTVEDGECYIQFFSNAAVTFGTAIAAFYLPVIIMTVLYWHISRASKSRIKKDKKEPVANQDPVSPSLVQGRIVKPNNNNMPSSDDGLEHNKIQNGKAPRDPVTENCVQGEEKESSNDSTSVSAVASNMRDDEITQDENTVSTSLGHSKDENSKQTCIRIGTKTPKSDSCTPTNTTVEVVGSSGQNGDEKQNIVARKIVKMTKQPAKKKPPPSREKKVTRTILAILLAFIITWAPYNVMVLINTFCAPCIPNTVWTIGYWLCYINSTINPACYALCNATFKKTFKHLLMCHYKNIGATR

[14] = target: PR domain zinc finger protein 13 (Homo sapiens) (UniProt Q9H4Q3); experiment: Selectivity interaction (Methyltransferase panel (DSF assay)) EUB0000234b PRDM13
[15] = target: PR domain zinc finger protein 14 (Homo sapiens) (UniProt Q9GZV8); experiment: Selectivity interaction (Methyltransferase panel (DSF assay)) EUB0000234b PRDM14
[16] = target: Histone-lysine N-methyltransferase PRDM9 (Homo sapiens) (UniProt Q9NQV7); experiment: Selectivity interaction (NanoLuciferase thermal shift assay (NALTSA, in HEK293 cells)) EUB0000234b PRDM9; assay type: cell-based
Histamine H3 receptor [17] = target: T2, Histamine H3 receptor; experiment: Selectivity interaction (Eurofins Panlabs Discovery Services Panel (enzymes and receptors)) EUB0000234b HRH3; details: at 10 µM
[18] = target: PR domain zinc finger protein 10 (Homo sapiens) (UniProt Q9NQV6); experiment: Selectivity interaction (Methyltransferase panel (DSF assay)) EUB0000234b PRDM10
[19] = target: Putative histone-lysine N-methyltransferase PRDM6 (Homo sapiens) (UniProt Q9NQX0); experiment: Selectivity interaction (Methyltransferase panel (DSF assay)) EUB0000234b PRDM6
[20] = target: PR domain zinc finger protein 2 (Homo sapiens) (UniProt Q13029); experiment: Selectivity interaction (Methyltransferase panel (DSF assay)) EUB0000234b PRDM2
[21] = target: Muscarinic acetylcholine receptor M2 (Homo sapiens, UniProt P08172); experiment: Selectivity interaction (GloSensor assay) EUB0000234b CHRM2
[22] = target: RAC-alpha serine/threonine-protein kinase (Homo sapiens, UniProt P31749); experiment: Selectivity interaction (KinomeScan (DiscoverX)) EUB0000750a AKT1; details: at 1 µM
[23] = target: Epidermal growth factor receptor (Homo sapiens, UniProt P00533); experiment: Selectivity interaction (KinomeScan (DiscoverX)) EUB0000750a EGFR; details: at 1 µM
[24] = target: Phosphatidylinositol 4,5-bisphosphate 3-kinase catalytic subunit alpha isoform (Homo sapiens, UniProt P42336); experiment: Selectivity interaction (KinomeScan (DiscoverX)) EUB0000750a PIK3CA; details: at 1 µM
[25] = target: Citron Rho-interacting kinase (Homo sapiens) (UniProt O14578); experiment: Selectivity interaction (KinomeScan (DiscoverX)) EUB0000750a CIT; details: at 1 µM
[26] = target: Inhibitor of nuclear factor kappa-B kinase subunit epsilon (Homo sapiens) (UniProt Q14164); experiment: Selectivity interaction (KinomeScan (DiscoverX)) EUB0000750a IKBKE; details: at 1 µM
[27] = target: Synaptic vesicular amine transporter (Homo sapiens, UniProt Q05940); experiment: Selectivity interaction (Enzyme and Receptor panel (MSD Pharma/Taiwan)) EUB0000750a SLC18A2
[28] = target: T4, Serine/threonine-protein kinase LATS2 (Homo sapiens) (UniProt Q9NRM7); experiment: Selectivity interaction (KinomeScan (DiscoverX)) EUB0000750a LATS2; details: at 1 µM
T4 sequence (whole entry): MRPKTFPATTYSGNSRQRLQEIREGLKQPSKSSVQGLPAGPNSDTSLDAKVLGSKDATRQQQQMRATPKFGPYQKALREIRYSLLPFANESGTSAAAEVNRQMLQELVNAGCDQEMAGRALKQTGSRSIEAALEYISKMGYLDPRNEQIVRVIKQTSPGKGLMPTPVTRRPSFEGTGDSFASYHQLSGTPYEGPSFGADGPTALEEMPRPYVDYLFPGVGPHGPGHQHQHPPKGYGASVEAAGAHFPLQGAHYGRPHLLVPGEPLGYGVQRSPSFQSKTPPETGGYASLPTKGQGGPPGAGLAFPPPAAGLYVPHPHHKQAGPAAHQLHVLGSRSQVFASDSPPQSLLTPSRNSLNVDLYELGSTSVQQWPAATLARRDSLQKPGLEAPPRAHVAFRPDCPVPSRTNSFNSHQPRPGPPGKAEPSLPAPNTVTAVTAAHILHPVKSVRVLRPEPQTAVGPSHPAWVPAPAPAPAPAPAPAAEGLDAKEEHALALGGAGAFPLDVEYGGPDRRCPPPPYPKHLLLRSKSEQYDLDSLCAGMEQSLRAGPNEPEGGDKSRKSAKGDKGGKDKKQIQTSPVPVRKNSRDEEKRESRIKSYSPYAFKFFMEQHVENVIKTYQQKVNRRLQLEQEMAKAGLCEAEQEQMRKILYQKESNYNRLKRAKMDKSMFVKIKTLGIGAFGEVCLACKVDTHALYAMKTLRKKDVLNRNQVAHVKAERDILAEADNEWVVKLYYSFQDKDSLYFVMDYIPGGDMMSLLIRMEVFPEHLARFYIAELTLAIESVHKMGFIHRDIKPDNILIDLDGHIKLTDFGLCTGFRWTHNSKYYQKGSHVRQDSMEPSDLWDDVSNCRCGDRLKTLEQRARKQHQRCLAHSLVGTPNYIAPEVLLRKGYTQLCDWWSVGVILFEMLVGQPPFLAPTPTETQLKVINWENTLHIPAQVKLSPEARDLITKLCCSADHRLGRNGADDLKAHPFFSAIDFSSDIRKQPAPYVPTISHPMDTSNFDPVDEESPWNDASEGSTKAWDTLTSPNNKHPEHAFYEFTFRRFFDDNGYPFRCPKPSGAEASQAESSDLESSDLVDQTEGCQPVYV

Sequence of Histone-lysine N-methyltransferase PRDM9 (Homo sapiens) (Q9NQV7 whole entry): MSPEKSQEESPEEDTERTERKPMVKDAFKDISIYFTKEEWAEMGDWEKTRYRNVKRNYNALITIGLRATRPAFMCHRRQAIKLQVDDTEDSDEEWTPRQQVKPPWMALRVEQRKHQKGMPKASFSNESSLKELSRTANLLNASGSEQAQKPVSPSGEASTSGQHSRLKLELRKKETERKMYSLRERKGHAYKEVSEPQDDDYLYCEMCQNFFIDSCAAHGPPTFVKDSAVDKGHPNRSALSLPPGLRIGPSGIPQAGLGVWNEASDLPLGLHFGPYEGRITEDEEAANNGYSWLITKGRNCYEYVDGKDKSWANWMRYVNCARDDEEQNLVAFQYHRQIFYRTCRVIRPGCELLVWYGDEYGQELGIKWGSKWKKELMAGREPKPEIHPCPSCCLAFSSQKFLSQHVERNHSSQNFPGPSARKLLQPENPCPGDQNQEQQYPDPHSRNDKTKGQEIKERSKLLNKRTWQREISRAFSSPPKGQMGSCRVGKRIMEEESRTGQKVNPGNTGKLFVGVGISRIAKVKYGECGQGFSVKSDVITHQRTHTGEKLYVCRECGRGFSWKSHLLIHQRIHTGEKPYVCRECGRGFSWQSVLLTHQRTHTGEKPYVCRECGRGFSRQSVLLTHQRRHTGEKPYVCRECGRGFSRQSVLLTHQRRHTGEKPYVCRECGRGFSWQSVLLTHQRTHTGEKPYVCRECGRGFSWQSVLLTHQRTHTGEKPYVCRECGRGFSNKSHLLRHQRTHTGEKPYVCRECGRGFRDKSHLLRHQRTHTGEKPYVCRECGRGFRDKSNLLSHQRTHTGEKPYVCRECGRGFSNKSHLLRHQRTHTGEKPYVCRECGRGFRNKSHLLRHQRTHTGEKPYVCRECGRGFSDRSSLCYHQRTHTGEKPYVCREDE
T2 sequence (Q9Y5N1 whole entry): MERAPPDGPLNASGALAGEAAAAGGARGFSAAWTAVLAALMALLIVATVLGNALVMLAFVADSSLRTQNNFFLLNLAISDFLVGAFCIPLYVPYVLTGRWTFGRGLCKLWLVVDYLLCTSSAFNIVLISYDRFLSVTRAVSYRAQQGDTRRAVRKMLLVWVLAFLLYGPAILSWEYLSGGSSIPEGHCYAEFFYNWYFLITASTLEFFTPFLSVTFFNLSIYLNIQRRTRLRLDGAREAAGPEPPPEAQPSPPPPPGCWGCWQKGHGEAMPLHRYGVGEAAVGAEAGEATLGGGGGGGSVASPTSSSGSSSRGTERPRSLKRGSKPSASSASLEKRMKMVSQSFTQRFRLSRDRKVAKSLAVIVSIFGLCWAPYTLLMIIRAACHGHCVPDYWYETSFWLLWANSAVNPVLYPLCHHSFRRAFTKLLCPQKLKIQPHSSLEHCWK
T1 sequence (P35372 whole entry, the tested form may be a part): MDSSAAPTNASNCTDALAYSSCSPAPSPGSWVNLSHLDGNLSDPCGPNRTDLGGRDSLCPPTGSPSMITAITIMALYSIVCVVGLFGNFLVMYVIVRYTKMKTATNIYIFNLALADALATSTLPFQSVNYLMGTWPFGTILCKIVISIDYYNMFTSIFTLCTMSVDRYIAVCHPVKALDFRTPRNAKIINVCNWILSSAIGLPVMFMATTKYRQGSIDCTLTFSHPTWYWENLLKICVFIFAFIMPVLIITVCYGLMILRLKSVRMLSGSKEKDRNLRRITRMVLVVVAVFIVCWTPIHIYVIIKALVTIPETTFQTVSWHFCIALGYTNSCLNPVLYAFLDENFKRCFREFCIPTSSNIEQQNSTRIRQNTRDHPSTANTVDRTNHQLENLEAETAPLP
Sequence of Adenosine receptor A2b (Homo sapiens) (P29275 whole entry, the tested form may be a part): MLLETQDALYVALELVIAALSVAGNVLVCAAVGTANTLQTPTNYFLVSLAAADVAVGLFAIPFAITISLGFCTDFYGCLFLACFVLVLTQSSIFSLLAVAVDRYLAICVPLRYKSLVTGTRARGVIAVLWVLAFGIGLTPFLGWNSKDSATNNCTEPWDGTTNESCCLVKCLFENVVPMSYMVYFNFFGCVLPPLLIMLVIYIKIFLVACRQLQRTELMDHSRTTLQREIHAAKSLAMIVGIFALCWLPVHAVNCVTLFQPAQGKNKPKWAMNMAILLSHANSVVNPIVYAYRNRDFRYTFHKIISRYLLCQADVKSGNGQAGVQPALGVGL
Sequence of Adenosine receptor A2b (P29275 whole entry): as the sequence (P29275 whole entry, the tested form may be a part) above
Sequence of Histone-lysine N-methyltransferase MECOM (Homo sapiens) (Q03112 whole entry): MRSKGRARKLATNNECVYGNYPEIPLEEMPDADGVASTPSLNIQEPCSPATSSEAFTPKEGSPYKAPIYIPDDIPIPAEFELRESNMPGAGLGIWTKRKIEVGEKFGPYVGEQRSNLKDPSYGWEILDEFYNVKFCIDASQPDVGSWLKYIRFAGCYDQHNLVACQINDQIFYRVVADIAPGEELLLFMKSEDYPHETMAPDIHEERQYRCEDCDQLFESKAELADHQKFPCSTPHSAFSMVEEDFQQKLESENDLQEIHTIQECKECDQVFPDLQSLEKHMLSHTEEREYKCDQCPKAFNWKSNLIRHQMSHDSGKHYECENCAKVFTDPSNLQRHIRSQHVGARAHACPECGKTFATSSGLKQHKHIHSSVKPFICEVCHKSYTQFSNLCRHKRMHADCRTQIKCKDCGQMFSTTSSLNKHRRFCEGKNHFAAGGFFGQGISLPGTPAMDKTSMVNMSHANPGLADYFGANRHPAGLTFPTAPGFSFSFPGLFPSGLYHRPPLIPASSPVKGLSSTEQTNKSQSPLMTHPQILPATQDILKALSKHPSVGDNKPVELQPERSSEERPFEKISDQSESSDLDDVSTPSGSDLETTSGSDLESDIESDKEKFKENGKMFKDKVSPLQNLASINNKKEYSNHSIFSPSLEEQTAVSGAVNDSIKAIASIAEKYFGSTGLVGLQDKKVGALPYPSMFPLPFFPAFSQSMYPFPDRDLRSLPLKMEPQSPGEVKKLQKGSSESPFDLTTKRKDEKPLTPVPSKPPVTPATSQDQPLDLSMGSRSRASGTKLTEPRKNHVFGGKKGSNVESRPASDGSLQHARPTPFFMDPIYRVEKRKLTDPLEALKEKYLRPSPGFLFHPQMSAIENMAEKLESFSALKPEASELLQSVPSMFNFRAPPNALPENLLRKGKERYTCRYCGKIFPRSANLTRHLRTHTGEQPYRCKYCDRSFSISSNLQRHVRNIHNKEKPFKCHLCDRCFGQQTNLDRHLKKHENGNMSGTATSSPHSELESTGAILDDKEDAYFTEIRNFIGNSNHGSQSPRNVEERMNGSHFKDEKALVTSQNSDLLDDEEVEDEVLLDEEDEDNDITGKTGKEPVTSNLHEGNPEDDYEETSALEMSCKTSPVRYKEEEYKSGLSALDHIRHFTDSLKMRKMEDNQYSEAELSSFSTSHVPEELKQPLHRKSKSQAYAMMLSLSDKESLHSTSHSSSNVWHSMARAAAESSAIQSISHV
Sequence of PR domain zinc finger protein 13 (Homo sapiens) (Q9H4Q3 whole entry, the tested form may be a part): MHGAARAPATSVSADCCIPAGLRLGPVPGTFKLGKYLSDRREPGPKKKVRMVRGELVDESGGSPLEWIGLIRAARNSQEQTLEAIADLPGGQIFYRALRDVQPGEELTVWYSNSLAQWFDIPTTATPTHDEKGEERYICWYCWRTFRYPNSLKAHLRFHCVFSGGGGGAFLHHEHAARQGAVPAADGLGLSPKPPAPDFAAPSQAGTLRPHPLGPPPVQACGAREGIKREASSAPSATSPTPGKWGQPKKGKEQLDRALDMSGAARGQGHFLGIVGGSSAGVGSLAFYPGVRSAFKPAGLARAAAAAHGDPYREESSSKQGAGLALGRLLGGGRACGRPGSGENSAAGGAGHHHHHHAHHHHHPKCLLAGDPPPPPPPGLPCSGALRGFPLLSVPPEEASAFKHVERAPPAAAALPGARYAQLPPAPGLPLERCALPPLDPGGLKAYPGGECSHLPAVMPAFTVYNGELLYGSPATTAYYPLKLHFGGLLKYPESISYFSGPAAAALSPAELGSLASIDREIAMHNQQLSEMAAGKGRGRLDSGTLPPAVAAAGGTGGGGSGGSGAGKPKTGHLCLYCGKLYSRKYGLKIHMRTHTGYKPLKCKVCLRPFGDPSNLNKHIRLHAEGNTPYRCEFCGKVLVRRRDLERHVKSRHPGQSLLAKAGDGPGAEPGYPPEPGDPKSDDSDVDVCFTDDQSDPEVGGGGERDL
Sequence of PR domain zinc finger protein 1 (Homo sapiens) (O75626 whole entry, the tested form may be a part): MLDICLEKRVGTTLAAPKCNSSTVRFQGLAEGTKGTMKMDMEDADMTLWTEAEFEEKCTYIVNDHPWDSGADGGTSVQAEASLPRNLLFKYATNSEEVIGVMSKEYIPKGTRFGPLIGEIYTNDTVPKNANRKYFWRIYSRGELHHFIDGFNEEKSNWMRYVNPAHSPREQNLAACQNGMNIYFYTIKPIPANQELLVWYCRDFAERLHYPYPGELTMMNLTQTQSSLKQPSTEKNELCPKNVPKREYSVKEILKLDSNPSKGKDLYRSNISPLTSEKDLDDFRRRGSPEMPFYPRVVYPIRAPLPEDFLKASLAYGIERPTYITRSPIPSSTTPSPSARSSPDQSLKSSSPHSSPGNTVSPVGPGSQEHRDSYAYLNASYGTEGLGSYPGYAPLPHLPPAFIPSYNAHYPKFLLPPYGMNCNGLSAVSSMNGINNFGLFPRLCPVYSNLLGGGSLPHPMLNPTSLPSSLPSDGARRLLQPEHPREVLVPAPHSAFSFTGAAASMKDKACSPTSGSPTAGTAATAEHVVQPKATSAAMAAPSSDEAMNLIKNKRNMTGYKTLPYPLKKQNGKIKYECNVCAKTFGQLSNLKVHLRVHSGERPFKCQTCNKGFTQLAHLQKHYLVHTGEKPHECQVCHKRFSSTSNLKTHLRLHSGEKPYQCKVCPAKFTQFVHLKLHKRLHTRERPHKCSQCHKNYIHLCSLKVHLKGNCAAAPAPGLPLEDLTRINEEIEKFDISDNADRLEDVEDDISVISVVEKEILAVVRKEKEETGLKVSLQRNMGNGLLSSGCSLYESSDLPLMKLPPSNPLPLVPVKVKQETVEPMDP

COc1cc(OC)cc(-c2noc(N3CCN(C)C4(CCN(c5ccnc(C)c5)CC4)C3)n2)c1
dTm [1]: 5 K
dTm [2]: < 2 K
EC50 (Adenosine receptor A2b): > 10 µM
% of inhibition (Mu-type opioid receptor [3]): > 50%
dTm [4]: < 2 K
dTm [5]: 5.2 K
% of inhibition [6]: > 50%
dTm [7]: < 2 K
dTm [8]: < 2 K
EC50 (Histamine H3 receptor [9]): > 10 µM
dTm [10]: < 2 K
dTm [11]: < 2 K
EC50 (Mu-type opioid receptor [12]): > 10 µM
% of inhibition [13]: > 50%
dTm [14]: < 2 K
dTm [15]: < 2 K
dTm [16]: 2 K
% of inhibition (Histamine H3 receptor [17]): > 50%
dTm [18]: < 2 K
dTm [19]: < 2 K
dTm [20]: < 2 K
EC50 [21]: > 10 µM

O=S(=O)(NC1CCC(c2cc(F)ccc2F)(S(=O)(=O)c2ccc(Cl)cc2)CC1)C(F)(F)F (centres undefined) [MRK-560]
% of control [22]: 5%
% of control [23]: 0%
% of control [24]: 36%
% of control [25]: 0%
% of control [26]: 0%
IC50 [27]: 0.213 µM
% of control [28]: 0%
